According to patent US20050129772A1, “Compositions comprising an HIV protease inhibitor” (Agouron Pharmaceuticals, Inc., priority 2003, published 2005):
Several values for one entry are separate records, joined by “and”; a condition that tells them apart may be missing. Identical values can stand only once.

Legend:
[1] = in vitro dissolution test in PBS at pH 6.5 and 290 mOsm/kg, 37° C.; assay type: physicochemical; design: AUC: concentration or dose not given beside the values; conditions: for AUC90 (area under the concentration-versus-time curve during the initial ninety minutes) / AUC1200 / C1200 (Compound A concentration at 1200 minutes) / MDC90 (maximum concentration of drug during the initial ninety minutes): dose 3000 μg/mL; for Compound A Concentration: 3000 μg/mL if all dissolved
Protocol: An in vitro dissolution test was performed to determine whether the amorphous Compound A of Example 1 provides concentration-enhancement relative to the crystalline form of Compound A. For this test, a sufficient amount of material was added to a microcentrifuge test tube so that the concentration of Compound A would have been 3000 μg/mL, if all of Compound A had dissolved. The test was run in duplicate. The tubes were placed in a 37° C. temperature-controlled chamber, and 1.8 mL PBS at pH 6.5 and 290 mOsm/kg was added to each respective tube. The samples were quickly mixed using a vortex mixer for about 60 seconds. The samples were centrifuged at 13,000 G at 37° C. for 1 minute. The resulting supernatant solution was then sampled and diluted 1:6 (by volume) with methanol and then analyzed by high-performance liquid chromatography (HPLC). HPLC analysis was performed using a Phenomenex Luna C18 column. The mobile phase consisted of 55% 20 mM KH2PO4, adjusted to pH 3 with H3PO4, and 45% acetonitrile. UV absorbance was measured at 210 nm. The contents of each tube were mixed on the vortex mixer and allowed to stand undisturbed at 37° C. until the next sample was taken. Samples were collected at 4, 10, 20, 40, 90 and 1200 minutes. Control 1 consisted of crystalline Form I of Compound A alone, and a sufficient amount of material was added so that the concentration of Compound A would have been 3000 μg/mL, if all of Compound A had dissolved. The concentrations of drug obtained in these samples were used to determine the maximum concentration of drug (“MDC90”), the area under the concentration-versus-time curve (“AUC90”) during the initial ninety minutes, and the Compound A concentration at 1200 minutes (“[…]”). Example 2 was prepared by combining amorphous Compound A and a concentration-enhancing polymer. A simple physical mixture of Compound A and the concentration-enhancing polymer hydroxypropyl methyl cellulose acetate succinate (AQUOT-MG, available from Shin Etsu, Tokyo, Japan) was prepared by adding 5.4 mg of amorphous Compound A prepared as in Example 1 and 0.6 mg of HPMCAS to a centrifuge tube. The dry powders were mixed using a vortex mixer for 1 minute. Dissolution tests were performed as described in Example 1. […] For these tests, a sufficient amount of material was added so that the concentration of Compound A would have been 3000 μg/mL, if all of Compound A had dissolved. […] Examples 37A, 37B and 37C were prepared as in Example 2, but with the following exceptions: Example 37A was 5.4 mg Compound A and 0.6 mg HPMCAS; Example 37B was 5.4 mg Compound A and 0.167 mg HPMCAS; and Example 37C was 5.4 mg Compound A and 0.055 mg HPMCAS. Example 37D consisted of amorphous Compound A alone. MDC360 is the maximum dissolved drug concentration within the first 360 minutes, and AUC360 is the area under the dissolved drug concentration versus time curve at 360 minutes.

[2] = oral dosing to fasted beagle dogs, plasma drug concentration; assay type: in vivo; conditions: 25 mgA/kg; for AUC0-Tlast: oral gavage suspension in 0.5 wt % Methocel, plasma
Protocol: The area under the concentration-versus-time curve (“AUCO-Tlast”, ng*hr/mL), from the time the dose was administered to the last sample, is shown in Table 17. Crystalline Form I of Compound A (Control 1) and amorphous Compound A (Example 1) were tested using a similar protocol. The dose was administered to dogs as a suspension in a solution containing 0.5 wt % Methocel® (HPMC, USP grade, 4000 cps, Dow Chemical Co.). Oral administration of the aqueous drug suspensions was facilitated using an oral gavage equipped with a polyethylene tube insert. The polyethylene tube insert was used to accurately deliver the desired volume of dose by displacement, without the need for additional volume of water to rinse the tube. The dose was 25 mgA/kg (“mgA” refers to mg of active drug).

[3] = aqueous solubility of crystalline Compound A; assay type: physicochemical; conditions: 26° C.
Text: The compound (4R)—N-allyl-3-{(2S,3S)-2-hydroxy-3-[(3-hydroxy-2-methylbenzoyl)amino]-4-phenylbutanoyl}-5,5-dimethyl-1,3-thiazolidine-4-carboxamide (also called “(R)-3-((2S,3S)-2-hydroxy-3-{[1-(3-hydroxy-2-methyl-phenyl)-methanoyl]-amino}-4-phenyl-butanoyl)-5,5-dimethyl-thiazolidine-4-carboxylic acid allylamide,” “(4R)-3-[(2S,3S)-2-hydroxy-3-(3-hydroxy-2-methyl-benzoylamino)-4-phenyl-butyryl]-5,5-dimethyl-thiazolidine-4-carboxylic acid allylamide,” or “4-thiazolidinecarboxamide, 3-[(2S,3S)-2-hydroxy-3-[(3-hydroxy-2-methylbenzoyl)amino]-1-oxo-4-phenylbutyl]-5,5-dimethyl-N-2-propenyl-, (4R)-,” and hereinafter referred to as “Compound A”) is an inhibitor of the HIV protease enzyme that may be used for the treatment of HIV-infected mammals, such as humans. Compound A and its preparation are disclosed in U.S. patent application Ser. Nos. 10/166,979 filed Jun. 11, 2002; 60/527,477, filed Dec. 4, 2003, and, 10/782,602, filed Dec. 4, 2003, all of which incorporated herein by reference for this purpose. […] This low aqueous solubility, combined with a low in vivo permeability, result in low oral bioavailability for crystalline Compound A.

[4] = PBS pH 6.5, 37° C., listed as Ex 1
[5] = time 10 min, PBS pH 6.5, 37° C.
[6] = time 20 min, PBS pH 6.5, 37° C.
[7] = time 40 min, PBS pH 6.5, 37° C.
[8] = time 90 min, PBS pH 6.5, 37° C.
[9] = time 1200 min, PBS pH 6.5, 37° C.

Row | AUC90 (area under the concentration-versus-time curve during the initial ninety minutes) ([1]; PBS pH 6.5, 37° C.) | AUC1200 ([1]; PBS pH 6.5, 37° C.) | C1200 (Compound A concentration at 1200 minutes) ([1]; PBS pH 6.5, 37° C.) [µg/mL] | MDC90 (maximum concentration of drug during the initial ninety minutes) ([1]; PBS pH 6.5, 37° C.) | AUC ([1]; time 0 min, PBS pH 6.5, 37° C.) [µg·min/mL] | Compound A Concentration ([1]; time 0 min, PBS pH 6.5, 37° C.) [µg/mL] | AUC ([1]; time 4 min, PBS pH 6.5, 37° C.) [µg·min/mL] | Compound A Concentration ([1]; time 4 min, PBS pH 6.5, 37° C.) [µg/mL] | AUC [1, 5] [µg·min/mL] | Compound A Concentration [1, 5] [µg/mL] | AUC [1, 6] | Compound A Concentration [1, 6] [µg/mL] | AUC [1, 7] | Compound A Concentration [1, 7] [µg/mL] | AUC [1, 8] | Compound A Concentration [1, 8] [µg/mL] | AUC [1, 9] | Compound A Concentration [1, 9] [µg/mL] | AUC0-Tlast [2] [ng·h/mL] | Structure (SMILES) | other results
1 | 75,900 min * μg/mL | 233,000 min*μg/mL | 126 | 1153 µg/mL and 1150 µg/mL | 0 | 0 | 2100 | 1070 | 8800 | 1140 | 20,200 min * μg/mL | 1150 | 43,200 min * μg/mL | 1150 | 75,900 min * μg/mL | 158 | 233,200 min * μg/mL | 126 | 3500 | C=CCNC(=O)[C@H]1N(C(=O)[C@@H](O)[C@H](Cc2ccccc2)NC(=O)c2cccc(O)c2C)CSC1(C)C [Example 1, (4R)—N-allyl-3-{(2S,3S)-2-hydroxy-3-[(3-hydroxy-2-methylbenzoyl)amino]-4-phenylbutanoyl}-5,5-dimethyl-1,3-thiazolidine-4-carboxamide] | AUC90 relative to crystalline Form I of Compound A ([1]; PBS pH 6.5, 37° C.): 8.3 fold; MDC relative to crystalline Form I of Compound A ([1]; PBS pH 6.5, 37° C.): 10.3 fold; AUC90 (area under the concentration-versus-time curve during the initial ninety minutes) [1, 4]: 75,900 min * μg/mL; C1200 (Compound A concentration at 1200 minutes) [1, 4]: 126 µg/mL; MDC90 (maximum concentration of drug during the initial ninety minutes) [1, 4]: 1150 µg/mL; relative bioavailability (AUC of test composition divided by AUC of crystalline Form I of Compound A alone) ([2]; oral): 11.7 fold
2 | – | – | – | – | – | – | – | – | – | – | – | – | – | – | – | – | – | – | – | C=CCNC(=O)[C@H]1N(C(=O)[C@@H](O)[C@H](Cc2ccccc2)NC(=O)c2cccc(O)c2C)CSC1(C)C [Compound A, (4R)—N-allyl-3-{(2S,3S)-2-hydroxy-3-[(3-hydroxy-2-methylbenzoyl)amino]-4-phenylbutanoyl}-5,5-dimethyl-1,3-thiazolidine-4-carboxamide] | aqueous solubility ([3]; 0.1 N HCl (pH 1.2)): about 0.16 mgA/mL; aqueous solubility ([3]; normal saline (pH 8.2)): ~0.14 mgA/mL; aqueous solubility ([3]; unbuffered water (pH 8.3)): about 0.16 mgA/mL
3 | – | – | – | – | – | – | – | – | – | – | – | – | – | – | – | – | – | – | – | C=CCNC(=O)[C@H]1N(C(=O)[C@@H](O)[C@H](Cc2ccccc2)NC(=O)c2cccc(O)c2C)CSC1(C)C [Example 37D, (4R)—N-allyl-3-{(2S,3S)-2-hydroxy-3-[(3-hydroxy-2-methylbenzoyl)amino]-4-phenylbutanoyl}-5,5-dimethyl-1,3-thiazolidine-4-carboxamide] | AUC360 (area under the dissolved drug concentration versus time curve at 360 minutes) ([1]; dissolution as in Example 2): 180,000 min*μg/ml; MDC360 (maximum dissolved drug concentration within the first 360 minutes) ([1]; dissolution as in Example 2): 1190 µg/mL; C1200 ([1]; dissolution as in Example 2 (Example 37 series)): 140 µg/mL
4 | 9200 µg·min/mL | 132,000 min*μg/mL | 109 | 112 µg/mL | 0 | 0 | 200 | 100 | 800 | 100 | 1800 µg·min/mL | 106 | 3900 µg·min/mL | 101 | 9200 µg·min/mL | 112 | 131,700 min * μg/mL | 109 | 300 | C=CCNC(=O)[C@H]1N(C(=O)[C@@H](O)[C@H](Cc2ccccc2)NC(=O)c2cccc(O)c2C)CSC1(C)C [Control 1, (4R)—N-allyl-3-{(2S,3S)-2-hydroxy-3-[(3-hydroxy-2-methylbenzoyl)amino]-4-phenylbutanoyl}-5,5-dimethyl-1,3-thiazolidine-4-carboxamide] | –
